Experiment [1] has as its target T1, human recombinant histamine H2 receptor (Homo sapiens, UniProt P25021).
T1 construct: expressed in transfected cells; host or cells: CHO-K1 cells
The experiment is described as follows: Histamine H2 radioligand binding ([125I]Aminopotentidine). In outline:
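Test compounds were assessed for their ability to displace radioligand from the human recombinant histamine H2 receptor. Non-specific binding was determined in the presence of 3 μM Tiotidine, and results were expressed as percent inhibition of specific binding, with 1% DMSO serving as the vehicle.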

Experiment [2] deals with T2, human recombinant adrenergic α1D receptor (Homo sapiens, UniProt P25100).
T2 construct: expressed in transfected cells; host or cells: HEK-293 cells
T2 sequence (P25100 1-572): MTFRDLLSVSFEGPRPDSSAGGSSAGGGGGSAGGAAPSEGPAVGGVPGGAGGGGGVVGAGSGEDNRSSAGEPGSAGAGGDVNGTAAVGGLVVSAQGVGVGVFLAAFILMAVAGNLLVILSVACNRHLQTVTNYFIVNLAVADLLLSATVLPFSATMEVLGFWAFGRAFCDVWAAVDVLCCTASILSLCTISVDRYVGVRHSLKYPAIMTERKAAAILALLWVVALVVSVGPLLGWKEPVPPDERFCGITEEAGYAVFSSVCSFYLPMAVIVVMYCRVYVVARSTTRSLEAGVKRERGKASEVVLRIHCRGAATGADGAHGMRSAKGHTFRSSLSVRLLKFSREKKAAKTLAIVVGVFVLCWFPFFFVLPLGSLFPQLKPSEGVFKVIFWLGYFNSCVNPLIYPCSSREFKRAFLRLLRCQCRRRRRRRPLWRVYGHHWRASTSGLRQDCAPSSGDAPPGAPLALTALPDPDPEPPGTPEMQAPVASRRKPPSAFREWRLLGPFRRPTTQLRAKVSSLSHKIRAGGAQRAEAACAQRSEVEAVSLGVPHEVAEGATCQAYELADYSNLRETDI
Description: Adrenergic α1D radioligand binding ([3H]Prozosin). More on the design: Inhibition of ligand binding, Adren. alpha1D: concentration or dose not given beside the values. Conditions: for inhibition at 1 µM: compounds screened at 1 μM, read-out: Inhibition of ligand binding, Adren. alpha1D (percent inhibition of specific binding); for Inhibition of ligand binding, Adren. alpha1D: percent inhibition of specific binding. Here is the method: Compounds of invention were incubated with 0.6 nM [^3H]Prozosin for 60 minutes at 25° C. Non-specific binding was estimated in the presence of 10 μM phentolamine. Receptor proteins were filtered and washed, the filters were then counted to determine [^3H]Prozosin specifically bound. […] Biochemical assay results are presented as the percent inhibition of specific binding in Table 6.

In experiment [3] the target is T3, human recombinant adrenergic α2B receptor (Homo sapiens, UniProt P18089).
T3 construct: expressed in transfected cells; host or cells: CHO-K1 cells
T3 sequence (P18089 1-450): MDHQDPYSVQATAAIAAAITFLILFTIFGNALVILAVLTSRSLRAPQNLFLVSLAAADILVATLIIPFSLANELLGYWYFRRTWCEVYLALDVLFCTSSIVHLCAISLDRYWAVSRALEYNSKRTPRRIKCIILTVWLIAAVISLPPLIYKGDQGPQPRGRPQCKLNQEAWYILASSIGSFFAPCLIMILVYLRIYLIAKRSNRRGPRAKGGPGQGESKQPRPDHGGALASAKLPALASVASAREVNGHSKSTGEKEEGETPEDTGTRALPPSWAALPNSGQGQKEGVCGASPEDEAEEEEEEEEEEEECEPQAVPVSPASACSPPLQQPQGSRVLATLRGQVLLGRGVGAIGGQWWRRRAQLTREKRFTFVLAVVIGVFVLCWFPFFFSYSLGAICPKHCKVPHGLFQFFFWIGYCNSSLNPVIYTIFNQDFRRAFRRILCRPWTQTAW
Description: Adrenergic α2B radioligand binding ([3H]Rauwolscine). More on the design: Inhibition of ligand binding, Adren. alpha2B: concentration or dose not given beside the values. Conditions: for inhibition at 1 µM: compounds screened at 1 μM, read-out: Inhibition of ligand binding, Adren. alpha2B (percent inhibition of specific binding); for Inhibition of ligand binding, Adren. alpha2B: percent inhibition of specific binding. In outline:
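Membranes from CHO-K1 cells expressing the receptor, in 50 mM Tris-HCl pH 7.4 with 12.5 mM MgCl2, 1 mM EDTA, 0.2% BSA, incubated with compounds and 2.5 nM [3H]Rauwolscine for 60 minutes at 25 °C.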

Experiment [4] has as its target T4, human recombinant dopamine D2L receptor (Homo sapiens, UniProt P14416).
T4 construct: expressed in transfected cells; host or cells: CHO cells
The experiment is described as follows: Dopamine D2L radioligand binding ([3H]Spiperone). To be noted: for inhibition at 1 µM: compounds screened at 1 μM, read-out: Inhibition of ligand binding, Dop. D2L (percent inhibition of specific binding); for Inhibition of ligand binding, Dop. D2L: percent inhibition of specific binding. Here is the method: Non-specific binding was estimated in the presence of 10 μM Haloperidol. Receptor proteins were filtered and washed, the filters were then counted to determine [^3H]Spiperone specifically bound. […] Biochemical assay results are presented as the percent inhibition of specific binding in Table 6.

In experiment [5] the target is T5, human recombinant serotonin (5-Hydroxytryptamine) 5-HT2A receptor (Homo sapiens, UniProt P28223).
T5 construct: expressed in transfected cells; host or cells: CHO-K1 cells
T5 sequence (P28223 whole entry): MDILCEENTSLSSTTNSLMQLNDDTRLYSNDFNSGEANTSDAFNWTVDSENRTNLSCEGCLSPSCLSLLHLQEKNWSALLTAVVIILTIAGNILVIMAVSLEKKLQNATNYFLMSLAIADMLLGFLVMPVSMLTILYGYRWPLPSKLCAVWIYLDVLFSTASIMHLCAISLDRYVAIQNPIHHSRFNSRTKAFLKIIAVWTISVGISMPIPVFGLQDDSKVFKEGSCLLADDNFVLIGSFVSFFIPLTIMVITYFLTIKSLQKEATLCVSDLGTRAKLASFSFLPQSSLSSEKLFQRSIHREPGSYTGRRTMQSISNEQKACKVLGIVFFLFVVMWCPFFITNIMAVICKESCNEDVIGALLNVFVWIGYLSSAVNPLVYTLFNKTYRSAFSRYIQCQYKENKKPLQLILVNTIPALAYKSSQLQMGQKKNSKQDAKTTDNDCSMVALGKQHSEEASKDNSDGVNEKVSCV
The experiment is described as follows: Serotonin 5-HT2A radioligand binding ([3H]Ketanserin). To be noted: for inhibition at 1 µM: read-out: Inhibition of ligand binding, Ser. 5-HT2A (percent inhibition of specific binding); for Inhibition of ligand binding, Ser. 5-HT2A: percent inhibition of specific binding. Here is the method: Compounds of the invention were incubated with 0.5 nM [^3H]Ketanserin for 60 minutes at 25° C. Non-specific binding was estimated in the presence of 1 μM Mianserin. Receptor proteins were filtered and washed, the filters were then counted to determine [^3H]Ketanserin specifically bound. […] Biochemical assay results are presented as the percent inhibition of specific binding in Table 6.

Experiment [6] addresses T6, human recombinant serotonin (5-Hydroxytryptamine) 5-HT2C receptor (Homo sapiens, UniProt P28335).
T6 construct: expressed in transfected cells; host or cells: CHO-K1 cells
T6 sequence (P28335 33-458): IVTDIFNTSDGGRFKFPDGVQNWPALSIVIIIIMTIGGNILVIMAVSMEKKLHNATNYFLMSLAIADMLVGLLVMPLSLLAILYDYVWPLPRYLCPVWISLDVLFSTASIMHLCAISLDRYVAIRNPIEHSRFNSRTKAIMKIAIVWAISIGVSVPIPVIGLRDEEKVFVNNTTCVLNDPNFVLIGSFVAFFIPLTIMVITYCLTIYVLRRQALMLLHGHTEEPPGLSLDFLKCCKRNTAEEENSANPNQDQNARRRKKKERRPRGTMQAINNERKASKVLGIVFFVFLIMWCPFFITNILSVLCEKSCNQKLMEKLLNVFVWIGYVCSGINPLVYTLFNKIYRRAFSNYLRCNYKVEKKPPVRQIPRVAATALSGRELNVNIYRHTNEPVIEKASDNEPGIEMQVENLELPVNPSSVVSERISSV
Description: Serotonin 5-HT2C radioligand binding ([3H]Mesulergine). Conditions: for inhibition at 1 µM: compounds screened at 1 μM, read-out: Inhibition of ligand binding, Ser. 5-HT2C (percent inhibition of specific binding); for Inhibition of ligand binding, Ser. 5-HT2C: percent inhibition of specific binding. More on the design: Inhibition of ligand binding, Ser. 5-HT2C: concentration or dose not given beside the values. On the procedure:
Compounds of the invention were incubated with 1 nM [^3H]Mesulergine for 60 minutes at 25° C. Non-specific binding was estimated in the presence of 1 μM Mianserin. Receptor proteins were filtered and washed, the filters were then counted to determine [^3H]Mesulergine specifically bound. […] Biochemical assay results are presented as the percent inhibition of specific binding in Table 6.

Where [7] appears, read: compounds screened at 1 μM, read-out: Inhibition of ligand binding, Hist. H2 (percent inhibition of specific binding).
The mark [8] stands for this setting: percent inhibition of specific binding, screened at 1 μM, read-out: Inhibition of ligand binding, Hist. H2.

These results are taken from patent US9096591B2, “Tetracyclic compounds” (Medivation Technologies, Inc., priority 2007, dated 2015).

Read-outs that look alike come from different tables or passages of the source.

What is called inhibition is the change of the read-out against control, counted positive when it falls.

T1 sequence (P25021 whole entry): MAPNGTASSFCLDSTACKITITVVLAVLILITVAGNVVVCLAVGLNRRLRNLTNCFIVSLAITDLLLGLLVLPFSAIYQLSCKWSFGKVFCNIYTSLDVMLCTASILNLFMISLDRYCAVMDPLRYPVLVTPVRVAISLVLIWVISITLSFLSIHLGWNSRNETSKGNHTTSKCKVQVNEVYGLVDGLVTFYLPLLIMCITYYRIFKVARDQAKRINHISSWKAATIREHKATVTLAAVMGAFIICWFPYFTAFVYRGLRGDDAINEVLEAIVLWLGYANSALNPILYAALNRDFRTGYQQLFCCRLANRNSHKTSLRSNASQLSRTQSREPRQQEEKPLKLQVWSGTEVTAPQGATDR
T4 sequence (P14416 whole entry): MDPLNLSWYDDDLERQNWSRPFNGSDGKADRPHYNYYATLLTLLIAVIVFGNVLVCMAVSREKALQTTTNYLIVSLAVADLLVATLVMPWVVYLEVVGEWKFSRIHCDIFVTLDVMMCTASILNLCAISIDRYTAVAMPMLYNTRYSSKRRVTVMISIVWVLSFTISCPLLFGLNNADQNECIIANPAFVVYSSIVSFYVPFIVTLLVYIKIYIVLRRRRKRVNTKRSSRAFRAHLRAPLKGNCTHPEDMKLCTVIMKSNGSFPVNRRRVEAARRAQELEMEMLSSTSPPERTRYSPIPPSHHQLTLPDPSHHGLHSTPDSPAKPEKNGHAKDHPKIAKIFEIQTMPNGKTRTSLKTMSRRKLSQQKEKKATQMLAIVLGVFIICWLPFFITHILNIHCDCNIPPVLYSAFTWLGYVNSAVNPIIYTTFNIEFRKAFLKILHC

With `CN1CCc2c(c3cc(Br)ccc3n2CC(=O)N2CCCCC2)C1` [Compound 516, 2-(8-bromo-2-methyl-3,4-dihydro-1H-pyrido[4,3-b]indol-5(2H)-yl)-1-(piperidin-1-yl)ethanone], the inhibition at 1 µM in experiment [1] (setting [7]) is 12%; in experiment [2] it was 26%; in experiment [3], 21%; in experiment [4] it was -4%; in experiment [5], 6%; in experiment [6], 58%.
For the compound `Cc1ccc2c(c1)c1c(n2CCc2nc(-c3ccccc3)cs2)CCN(C)C1` [Compound C1-5], the inhibition at 1 µM in experiment [1] (setting [7]) worked out at 73%; in experiment [2] it was 92%; in experiment [3], 113%; in experiment [4], 36%; in experiment [5] it was 97%; in experiment [6] it was 93%.
Take `Cc1ccc2c(c1)c1c(n2CCc2ccc(F)cc2)CCN(C)C1` [Compound 33, 5-(4-fluorophenethyl)-2,3,4,5-tetrahydro-2,8-dimethyl-1H-pyrido[4,3-b]indole]: the inhibition at 0.1 µM in experiment [1] (0.1 μM compound, 0.1 nM [125I]Aminopotentidine, read-out: Histamine Binding H2, percent inhibition of specific binding) is 41%. The inhibition at 1 µM stood at 91% in experiment [1] (1 μM compound, 0.1 nM [125I]Aminopotentidine, read-out: Histamine Binding H2, percent inhibition of specific binding) and 91% in experiment [1] (setting [8]). Moreover, the “Inhibition of ligand binding, Adren. alpha1D” value (“Inhibition … Adren. alpha1D” below) in experiment [2] was determined as 88%. Moreover, in experiment [3], the “Inhibition of ligand binding, Adren. alpha2B” value (“Inhibition … Adren. alpha2B” for short) worked out at 100%. The “Inhibition of ligand binding, Dop. D2L” value in experiment [4] came to 88%. Besides, the “Inhibition of ligand binding, Ser. 5-HT2A” value (from here on “Inhibition … Ser. 5-HT2A”) in experiment [5] was 97%. The “Inhibition of ligand binding, Ser. 5-HT2C” value (shortened to “Inhibition … Ser. 5-HT2C”) in experiment [6] was determined as 95%.
Turning to `CN1CCc2c(c3ncccc3n2CCc2ccncc2)C1` [Compound 482, 9-aza-2-methyl-5-(2-(pyridin-4-yl)ethyl)-2,3,4,5-tetrahydro-1H-pyrido[4,3-b]indole], the inhibition at 1 µM in experiment [1] (setting [7]) was -9%; in experiment [2], 2%; in experiment [3] it was 10%; in experiment [4] it was 7%; in experiment [5] it was -7%; in experiment [6] it was 17%.
Regarding `Cc1ccc2c(c1)c1c(n2CCc2cnc(C)nc2)CCN(C)C1` [Compound 323, 2,3,4,5-tetrahydro-2,8-dimethyl-5-(2-(2-methylpyrimidin-5-yl)ethyl)-1H-pyrido[4,3-b]indole], the inhibition at 1 µM in experiment [1] (setting [8]) amounted to 17%. Further, in experiment [2], the “Inhibition … Adren. alpha1D” value was 49%. Also, in experiment [3], the “Inhibition … Adren. alpha2B” value came out at 62%. Further, in experiment [4], the “Inhibition of ligand binding, Dop. D2L” value stood at 8%. Moreover, the “Inhibition … Ser. 5-HT2A” value in experiment [5] is recorded as 16%. In experiment [6], the “Inhibition … Ser. 5-HT2C” value was found to be 20%.
On to `CN1CCc2c(c3ccncc3n2CCc2ccncc2)C1` [Compound 483, 7-aza-2-methyl-5-(2-(pyridin-4-yl)ethyl)-2,3,4,5-tetrahydro-1H-pyrido[4,3-b]indole], for which the inhibition at 1 µM is -7% in experiment [1] (setting [7]); 3% in experiment [2]; 12% in experiment [3]; 0% in experiment [4]; 2% in experiment [5]; 9% in experiment [6].
For `CN1CCc2c(c3ncccc3n2CCc2ccccn2)C1` [Compound 484, 9-aza-2-methyl-5-(2-(pyridin-2-yl)ethyl)-2,3,4,5-tetrahydro-1H-pyrido[4,3-b]indole], the inhibition at 1 µM is -4% in experiment [1] (setting [7]); 10% in experiment [2]; 30% in experiment [3]; 15% in experiment [4]; 39% in experiment [5]; 31% in experiment [6].
For the compound `Cc1ccc(CCn2c3c(c4cc(I)ccc42)CN(C)CC3)cn1` [Compound 485, 2,3,4,5-tetrahydro-8-iodo-2-methyl-5-(2-(6-methylpyridin-3-yl)ethyl)-1H-pyrido[4,3-b]indole], the inhibition at 1 µM in experiment [1] (setting [7]) was found to be 71%; in experiment [2] it was 69%; in experiment [3] it was 98%; in experiment [4], 43%; in experiment [5], 69%; in experiment [6], 91%.
Turning to `CN1CCc2c(c3cc(I)ccc3n2CC(=O)N2CCCCC2)C1` [Compound 486, 2-(1,2,3,4-tetrahydro-8-iodo-2-methylpyrido[4,3-b]indol-5-yl)-1-(piperidin-1-yl)ethanone], the inhibition at 1 µM in experiment [1] (setting [7]) was 11%; in experiment [2] it was 22%; in experiment [3] it was 7%; in experiment [4], 0%; in experiment [5], 19%; in experiment [6], 31%.
Consider `CCOC(=O)c1ccc(CCn2c3c(c4cc(C)ccc42)CN(C)CC3)cn1` [Compound 275, ethyl 5-(2-(1,2,3,4-tetrahydro-2,8-dimethylpyrido[4,3-b]indol-5-yl)ethyl)pyridine-2-carboxylate], for which the inhibition at 1 µM in experiment [1] (setting [8]) worked out at 20%. For the same compound, the “Inhibition … Adren. alpha1D” value in experiment [2] was 87%. Further, the “Inhibition … Adren. alpha2B” value in experiment [3] is 92%. For the same compound, the “Inhibition of ligand binding, Dop. D2L” value in experiment [4] is 4%. In experiment [5], the “Inhibition … Ser. 5-HT2A” value is given as 39%. For the same compound, the “Inhibition … Ser. 5-HT2C” value in experiment [6] turned out to be 31%.
